Series [1] in a line: Toxicity observation after i.p. administration. Type of series: in vivo. As to conditions: 10 mg/kg, over 90 minutes.
The next series concerns BKW mice. The note with it: 1 µ/g/kg i.p. As to the method:
Anxiolytic activity during withdrawal from drugs of abuse is determined by the mouse light/dark withdrawal anxiety test. This procedure utilizes the exploratory model described above to test for anxiolytic activity after administration and subsequent abrupt cessation of diazepam, alcohol, cocaine or nicotine treatments. A detailed description is set for in Example 13 of this application.
The following procedure describes a method to determine whether compounds of Formula I effect the anxiety that occurs after abruptly ceasing chronic treatment with drugs of abuse.
Naive male BKW mice (25-30 g) are caged in groups of ten in quarters controlled for sound, temperature and humidity. Food and water are available ad libitum. The mice are kept on a 12 hour light cycle and 12 hour dark cycle, with lights on at 6:00 a.m. and off at 6:00 p.m. All experiments begin at least 7 days after arrival on site.
Levels of anxiety are determined by the two-compartment exploratory model of Crawley and Goodwin (see Example 12). Anxiolysis is seen as a general increase in exploratory activity in the lighted area. An increase in exploratory activity is relected by increased latency (the time for the mouse to move to the dark chamber when first placed in the center of the lighted area), increased or unaltered locomotor activity (number of grid lines crossed), increased number of rears and decreased time spent in the dark compartment.
Increased exploratory activity in the lighted area is induced by treating the mice for 14 days with alcohol (8.0 % w/v in drinking water), nicotine (0.1 mg/kg, i.p., twice daily), diazepam (10 mg/kg, i.p., twice daily), or cocaine (1.0 mg/kg, i.p., twice daily). Anxiolysis is assessed 1, 3, 7 and 14 days after commencement of the drug regime. The treatment is abruptly ceased and exploratory activity in the lighted area is determined 8, 24 and 48 hours thereafter. Vehicle or test compounds are administered during the withdrawl phase by intraperitoneal injection. Responses are represented as inhibition of the decrease in anxiolytic behavior after the alcohol, cocaine or nicotine treatment is ceased.

Another series relates to C5BI/6J mice. Put plainly: Mouse anxiolytic behavior model (two-compartment exploratory model). On the set-up: % ACTIVITY DARK AREA W% / SHUTTLE ACTIVITY W% / LOCOMOTOR ACTIVITY (LIGHT AREA) W% / % ACTIVITY DARK AREA Mean ± SD: concentration or dose not given beside the values. Type of series: in vivo. As to conditions: for % ACTIVITY DARK AREA Mean ± SD / LATENCY (SEC) Mean ± SD / LOCOMOTOR ACTIVITY (LIGHT AREA) Mean ± SD / SHUTTLE ACTIVITY Mean ± SD / TIME DARK AREA (SEC) Mean ± SD: i.p., 15 min post-treatment, monitored for 10 minutes; for % ACTIVITY DARK AREA W% / LATENCY (SEC) W% / LOCOMOTOR ACTIVITY (LIGHT AREA) W% / SHUTTLE ACTIVITY W% / TIME DARK AREA (SEC) W%: percentage change from control. As to the method:
In brief, the method involves determining whether a compound reduces the natural anxiety of mice in brightly-lit areas.
The following describes an in vivo method for determining anxiolytic activity of compounds of Formula I.
Naive male C5BI/6J mice, 18-20 g, are kept in groups of 10 mice in quarters controlled for sound, temperature and humidity. Food and water are available ad libitum. The mice are kept on a 12 hour light and 12 hour dark cycle, with lights on at 6:00 a.m. and off at 6:00 p.m. All experiments begin at least 7 days after arrival on site.
Briefly, the chamber consists of a plexiglass box (44 x 21 x 21 cm), divided into two chambers by a black plexiglass partition. The partition dividing the two chambers contains a 13 x 5 cm opening through which the mouse can easily pass. The dark chamber has […]. A fluorescent tube light (40 watt) placed above the chambers provides the only illumination. The Digiscan Animal Activity Monitor System RXYZCM16 (Omni-Tech Electronics) records the exploratory activity of the mice within the test chambers.
Prior to commencement of the study the mice are given 60 min to acclimatize to the laboratory environment. After a mouse receives an intraperitoneal (i.p.) injection of either test compound or vehicle it is returned to its home cage for a 15 min post-treatment period. The mouse is then placed in the center of the light chamber and monitored for 10 minutes.
Anxiolysis is seen as a general increase in exploratory activity in the lighted area. An increase in exploratory activity is relected by increased latency (the time for the mouse to move to the dark chamber when first placed in the center of the lighted area), increase in shuttle activity, increased or unaltered locomotor activity (number of grid lines crossed) and decreased time spent in the dark compartment.

The values that follow come from EP0457243A1, “Novel tricyclic compounds” (priority 1990, dated 1991).

Where two headings read alike, the source gives them in different places.

Consider `Cl.Nc1cc2c3c(cccc3c1Cl)C(=O)N([C@@H]1CN3CCC1CC3)C2=O` [S-6-chloro-5-amino-2-(1-azabicyclo[2.2.2]oct-3-yl)-2,3-dihydro-1H-benz[de]isoquinoline-1,3-dione hydrochloride], for which the unusual effects observed entry in series [1] was “No unusual effects”.

For the compound `Cl.Nc1c(Cl)cc2c3c(cccc13)C(=O)N([C@@H]1CN3CCC1CC3)C2=O` [(1), S-6-amino-5-chloro-2-(1-azabicyclo[2.2.2]oct-3-yl)-2,3-dihydro-1H-benz[de]isoquinoline-1,3-dione hydrochloride], in the series on BKW mice (alcohol withdrawal), the “Crossings/ 5 Min in Light” value worked out at 88.0±9.0, the “Latency” value was determined as 9.0 ± 1.3 s, the “Rears/5 Min in Light” value was 86.0±9.0 and the “Time in Dark (%)” value is given as 60.0±6.4%. Moreover, in the series on BKW mice (cocaine withdrawal), the “Crossings/ 5 Min in Light” value was 135.±15.7, the “Latency” value was 28.7 ± 2.81 s, the “Rears/5 Min in Light” value was found to be 101.±2.81 and the “Time in Dark (%)” value is recorded as 22.5±2.4%. Further, in the series on BKW mice (diazepam withdrawal), the “Crossings/ 5 Min in Light” value came to 97.5±10.6, the “Latency” value stood at 34.0 ± 3.7 s, the “Rears/5 Min in Light” value amounted to 89.2±9.1 and the “Time in Dark (%)” value is on record as 27.4±2.9%. Moreover, in the series with BKW mice (nicotine withdrawal), the “Crossings/ 5 Min in Light” value is recorded as 94.0±10.1, the “Latency” value is 20.8 ± 2.4 s, the “Rears/5 Min in Light” value came to 84.5±9.0 and the “Time in Dark (%)” value amounted to 29.0±3.1%. Moreover, in the series with C5BI/6J mice, the “% ACTIVITY DARK AREA Mean ± SD” value came out at 37.6 ± 4.9 %, the “LATENCY (SEC) Mean ± SD” value worked out at 3.5 ± 0.5 s, the “LOCOMOTOR ACTIVITY (LIGHT AREA) Mean ± SD” value amounted to 1208.0 ± 86.4 and the “SHUTTLE ACTIVITY Mean ± SD” value was determined as 42.0 ± 3.9. Further, in the series on C5BI/6J mice, the “TIME DARK AREA (SEC) Mean ± SD” value is 394.9 ± 32.8 s, the “% ACTIVITY DARK AREA W%” value is on record as -54.0%, the “LATENCY (SEC) W%” value is given as -28.6% and the “LOCOMOTOR ACTIVITY (LIGHT AREA) W%” value is listed as 41.0%. In addition, in the series on C5BI/6J mice, the “SHUTTLE ACTIVITY W%” value is 37.3% and the “TIME DARK AREA (SEC) W%” value is -26.9%.

For `Cc1nccn1CC1CCc2c(c3ccccc3n2C)C1=O` (stereo not shown) [Ondansetron, reference compound], in the series with C5BI/6J mice, the “% ACTIVITY DARK AREA Mean ± SD” value was 78.5 ± 4.7%, the “LATENCY (SEC) Mean ± SD” value amounted to 6.7 ± 1.5 s, the “LOCOMOTOR ACTIVITY (LIGHT AREA) Mean ± SD” value came out at 1582.0 ± 77.8 and the “SHUTTLE ACTIVITY Mean ± SD” value is reported as 121.0 ± 12.4. Further, in the series with C5BI/6J mice, the “TIME DARK AREA (SEC) Mean ± SD” value is 499.4 ± 14.8 s, the “% ACTIVITY DARK AREA W%” value is reported as -13.1%, the “LATENCY (SEC) W%” value amounted to 4.7% and the “LOCOMOTOR ACTIVITY (LIGHT AREA) W%” value stood at 52.6%. Besides, in the series with C5BI/6J mice, the “SHUTTLE ACTIVITY W%” value is listed as 182.7% and the “TIME DARK AREA (SEC) W%” value is recorded as -12.8%.

Regarding `Cl.Nc1cc2c3c(cccc3c1Cl)C(=O)N(C1CN3CCC1CC3)C2=O` (stereo not shown) [RS-6-chloro-5-amino-2-(1-azabicyclo[2.2.2]oct-3-yl)-2,3-dihydro-1H-benz[de]isoquinoline-1,3-dione hydrochloride], in series [1], the unusual effects observed entry is given as “No unusual effects”.

Turning to `I.Nc1c(Cl)cc2c3c(cccc13)C(=O)N([C@@H]1CN3CCC1CC3)C2=O` [(2), S-6-amino-5-chloro-2-(1-azabicyclo[2.2.2]oct-3-yl)-2,3-dihydro-1H-benz[de]isoquinoline-1,3-dione hydrogeniodide], in the series with C5BI/6J mice, the “% ACTIVITY DARK AREA Mean ± SD” value is 78.4 ± 1.8 %, the “LATENCY (SEC) Mean ± SD” value turned out to be 8.1 ± 1.4 s, the “LOCOMOTOR ACTIVITY (LIGHT AREA) Mean ± SD” value amounted to 1602.4 ± 73.0 and the “SHUTTLE ACTIVITY Mean ± SD” value is 138.6 ± 9.1. Moreover, in the series with C5BI/6J mice, the “TIME DARK AREA (SEC) Mean ± SD” value worked out at 498.4 ± 9.3 s, the “% ACTIVITY DARK AREA W%” value is reported as -10.0%, the “LATENCY (SEC) W%” value is 102.5% and the “LOCOMOTOR ACTIVITY (LIGHT AREA) W%” value amounted to 42.6%. For the same compound, in the series with C5BI/6J mice, the “SHUTTLE ACTIVITY W%” value is 112.3% and the “TIME DARK AREA (SEC) W%” value is listed as -10.8%.

With `Cl.O=C1c2cccc3cccc(c23)C(=O)N1[C@@H]1CN2CCC1CC2` [S-2-(1-azabicyclo[2.2.2]oct-3-yl)-2,3-dihydro-1H-benz[de]isoquinoline-1,3-dione hydrochloride], the unusual effects observed entry in series [1] is listed as “No unusual effects”.
